ChEMBL document CHEMBL1133825, “3-D-QSAR/CoMFA and recognition models of benzimidazole derivatives at the 5-HT(4) receptor” (Bioorg Med Chem Lett, 2001)

What was measured:
[1] = target: T1, 5-hydroxytryptamine receptor 4 (Rattus norvegicus, UniProt Q62758); assay: pKi against 5-hydroxytryptamine 4 receptor in rat striatum membrane; assay type: cell membranes
[2] = target: T1, 5-hydroxytryptamine receptor 4; assay: In vitro binding affinity to 5-hydroxytryptamine 4 receptor in rat striatum membrane; assay type: cell membranes

T1 sequence (Q62758 whole entry): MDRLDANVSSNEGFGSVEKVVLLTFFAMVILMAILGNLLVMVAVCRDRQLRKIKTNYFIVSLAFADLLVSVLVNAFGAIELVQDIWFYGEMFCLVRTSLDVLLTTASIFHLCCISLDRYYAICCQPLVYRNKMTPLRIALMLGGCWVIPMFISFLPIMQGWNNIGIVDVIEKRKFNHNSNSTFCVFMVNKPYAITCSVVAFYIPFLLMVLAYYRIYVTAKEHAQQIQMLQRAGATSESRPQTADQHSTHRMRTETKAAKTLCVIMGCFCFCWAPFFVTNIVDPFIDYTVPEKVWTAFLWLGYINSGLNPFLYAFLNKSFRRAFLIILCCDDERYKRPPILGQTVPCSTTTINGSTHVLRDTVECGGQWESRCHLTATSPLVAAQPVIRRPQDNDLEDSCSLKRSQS

Row | SMILES | Ki [1] | Ki [2]
1 | CN1CCC(OC(=O)c2cccc3nc[nH]c23)CC1 | > 10 µM | > 10 µM
2 | CC(C)CN1CCC(CNC(=O)c2cc(Cl)cc3c2ncn3Cc2ccccc2)CC1 | 0.0692 µM | 0.0692 µM
3 | CCCCN1CCC(CNC(=O)c2cc(Br)c(N)c3nc[nH]c23)CC1 | 0.0275 µM | 0.0278 µM
4 | CCCCN1CCC(CNC(=O)c2cc(Br)c([N+](=O)[O-])c3[nH]cnc23)CC1 | 0.0479 µM | 0.0482 µM
5 | CCN1CCC(NC(=O)c2cccc3[nH]cnc23)CC1 | > 1 µM | > 1 µM
6 | CCCN1CCC(NC(=O)c2cccc3nc[nH]c23)CC1 | > 1 µM | > 1 µM
7 | CS(=O)(=O)NCCN1CCC(COC(=O)c2cccc3nc[nH]c23)CC1 | 0.0263 µM | 0.0261 µM
8 | CCCCN1CCC(NC(=O)c2cccc3nc[nH]c23)CC1 | 0.288 µM | 0.29 µM
9 | CCCCN1CCC(CNC(=O)c2ccc(N)c3[nH]cnc23)CC1 | 0.115 µM | 0.115 µM
10 | CCCCN1CCC(CNC(=O)c2cc(Cl)c([N+](=O)[O-])c3nc[nH]c23)CC1 | 0.0447 µM | 0.0446 µM

Stronger by Ki [1], values ahead:

Row | Ki [1] | Ki [2] | SMILES
11 | 0.000288 µM | 0.00029 µM | CC(C)CN1CCC(CNC(=O)c2cc(Cl)cc3[nH]cnc23)CC1
12 | 0.00288 µM | 0.0029 µM | CCCCN1CCC(COC(=O)c2cc(Cl)cc3[nH]cnc23)CC1
13 | 0.0115 µM | 0.0114 µM | CS(=O)(=O)NCCN1CCC(CNC(=O)c2cccc3[nH]cnc23)CC1
14 | 0.00011 µM | 0.00011 µM | CS(=O)(=O)NCCN1CCC(CNC(=O)c2cc(Cl)cc3[nH]cnc23)CC1
15 | 0.0245 µM | 0.0246 µM | CCCCN1CCC(COC(=O)c2cccc3nc[nH]c23)CC1
16 | 0.00229 µM | 0.0023 µM | CS(=O)(=O)NCCN1CCC(COC(=O)c2cc(Cl)cc3[nH]cnc23)CC1
17 | 0.000324 µM | 0.00032 µM | CCCCN1CCC(CNC(=O)c2cc(Cl)cc3[nH]cnc23)CC1
18 | 0.000646 µM | 0.00064 µM | CCCCN1CCC(CNC(=O)c2cc(Br)cc3[nH]cnc23)CC1
19 | 0.0224 µM | 0.0224 µM | CCCCN1CCC(CNC(=O)c2cc(Cl)c(N)c3[nH]cnc23)CC1
20 | 0.00219 µM | 0.0022 µM | CC(C)CN1CCC(CNC(=O)c2cc(Cl)cc3c2ncn3C)CC1
21 | 0.000537 µM | 0.00054 µM | CCCCCN1CCC(CNC(=O)c2cc(Cl)cc3[nH]cnc23)CC1
22 | 0.0138 µM | 0.0137 µM | CCCCN1CCC(CNC(=O)c2cccc3[nH]cnc23)CC1
